Laboratory results published in patent US5266594A, “Inhibitors of nitric oxide synthase and use thereof to prevent glutamate neurotoxicity” (priority 1992, dated 1993).
Entries after “also recorded” stand apart in the source; their conditions may differ. Read-outs that look alike come from different tables or passages of the source.

Experiments:
cortical cell cultures = experiment: cells; type: cell-based, rat; details: for EC50: cortical cultures
Method: Primary dissociated cell cultures were prepared from fetal rats (13-to 14-day gestation for cortex and caudate-putamen cultures and 19- to 20-day gestation for hippocampal cultures). The tissue of interest was dissected, incubated for 15 minutes in 0.027% trypsin in Brooks-Logan solution (5% phosphate-buffered saline/0.04M sucrose/10 mM Hepes/0.03M glucose, pH 7.4), and then transferred to modified Eagle's medium (MEM) 10% horse serum/10% fetal bovine serum/2 mM glutamine for trituration. Dissociated cells were plated at a density of 3-4×10^5 cells per well in polyornithine-coated 15-mm multiwell plates. After 4 days the cells were treated with 10 μg of 5-fluoro-2'-deoxyuridine to prevent proliferations of noneuronal cells. Cells were maintained in MEM/5% horse serum/2 mM glutamine in 8% CO2 /humidified atmosphere at 37° C. The medium was changed twice weekly. Mature neurons (3-4 weeks) were used.
Cells were exposed to excitatory amino acids according to the method of Koh and Choi (J. Neurosci. (1988) 8:2153-2163). Before exposure, the cells were washed three times with Tris-buffered control salt solution (CSS), containing 120 mM NaCl/5.4 mM KCl/1.8 mM CaCl2 /25 mM Tris hydrochloride, pH 7.4 at room temperature/15 mM glucose. Brief exposures to glutamate, NMDA (plus 10 μM glycine), quisqualate, and sodium nitroprusside (SNP) were performed for 5 minutes in CSS. The exposure solution was then washed away and replaced by MEM with 21 mM glucose; then the cells were placed in an incubator for 20-24 hour. Long exposures to kainate were performed in MEM/21 mM glucose for 20-24 hour in the incubator. After exposure to the excitatory amino acids, the medium was replaced by CSS/0.4% trypan blue, which stains nonviable cells. Two to four photographs (10-20×) were made of each well, and viable versus nonviable cells were counted. The cytotoxicity data represent 6-24 separate wells assayed per data point, with ≈500-1500 cells counted per well. Neuronal cell injury was also assessed by measuring the release of lactate dehydrogenase by damaged or destroyed cells into the extracellular fluid following drug exposure.
Before initiating cytotoxicity experiments with NOS inhibitors, the potency of NMDA applied for 5 minutes in inducing cell death was evaluated by examining exclusion of 0.4% trypan blue by viable cells or measuring lactate dehydrogenase released by damaged or destroyed cells into the extracellular fluid.
To examine the role of NO in other forms of glutamate neurotoxicity, the effects of NO2 Arg cytotoxicity induced by quisqualate, kainate, and NMDA were compared. […] Data are means ±SEM (n=6-24). Cell death was determined by 0.4% trypan blue exclusion by viable cells.

cGMP formation = cGMP formation in cortical cell cultures (RIA); type: cell-based, rat; details: 300 μM NMDA (plus 10 μM glycine), 1 minute; 100 μM NO2 Arg, 1 mM L-Arg, 100 units of SOD, 500 μM Hb
Method: Primary dissociated cell cultures were prepared from fetal rats (13-to 14-day gestation for cortex and caudate-putamen cultures and 19- to 20-day gestation for hippocampal cultures). […] Dissociated cells were plated at a density of 3-4×10^5 cells per well in polyornithine-coated 15-mm multiwell plates. After 4 days the cells were treated with 10 μg of 5-fluoro-2'-deoxyuridine to prevent proliferations of noneuronal cells. Cells were maintained in MEM/5% horse serum/2 mM glutamine in 8% CO2 /humidified atmosphere at 37° C. The medium was changed twice weekly. Mature neurons (3-4 weeks) were used.
For determination of cGMP the cells were washed three times with CSS. […] After ether extraction, cGMP levels were determined by RIA.
Data are means ±SEM (n=6-8).
Data are means ±SEM (n=8-12).

[1] = target: brain NOS (cerebellar NOS) (Rattus norvegicus, UniProt P29476); experiment: inhibition of NOS activity, conversion of [^3 H]arginine to [^3 H]citrulline, cerebellar homogenates/supernatants in vitro
From the text: (§1) Inhibitors of NOS are compounds which compete for the substrate binding site of NOS or other sites on the enzyme, and include both reversible and irreversible inhibitors. The present invention contemplates the use of any physiologically acceptable inhibitor which inhibits NOS activity. The effectiveness of a compound, and its relative potency as an NOS inhibitor, can be tested and routinely determined by measuring inhibition of NOS activity by monitoring the conversion of arginine to citrulline by NOS in, for example, cerebellar homogenates. A reduction in citrulline formation indicates inhibitory activity of the compound. The percent reduction in citrulline formation, compared to the amount of citrulline formed in the absence of the compound being tested, indicates the potency of the compound as an NOS inhibitor.
Rat cerebella were homogenized in 10 vols. (w/v) […] Tris (pH 7.4), 2 mM EDTA. Homogenates were centrifuged at 10,000×g for 15 minutes at 4° C. Supernatant preparations were used in the enzyme assays. Cerebellar tissue was dialyzed (Spectra/Por, 10,000 MWCO, EDTA-treated cellulose dialysis tubing) against 20 mM Tris (pH 7.4), 2 mM EDTA (300 ml×2) for 24 hours at 4° C.
Cerebellar homogenates were incubated with arginine derivatives for one hour at 4° C., and dialyzed overnight. Aliquots (25 μg protein) were assayed for NOS activity before and after dialysis.
(§2) NOS activity was measured by monitoring the conversion of [^3 H]arginine to [^3 H]citrulline as described by Bredt and Snyder (Proc. Natl. Acad. Sci USA (1990) 87682-685). Briefly, enzyme assays contained 25 μl of soluble tissue, 50 μl of […] [^3 H]arginine and 1 mM NADPH, and 25 μl of 3 mM CaCl2. After a 15 minute incubation at room temperature, the assays were terminated with 3 ml of 20 mM Hepes (pH 5.5) with 2 mM EDTA, and were applied to 0.5 ml columns of Dowex AG50WX8 (Na^+ form). [^3 H]citrulline was quantified by liquid scintillation spectroscopy of the 3 ml flow-through.
(§3) Accordingly, the effects of 2, 4 and 24 hours of preincubations of cerebellar supernatants (FIG. 2A) and activated macrophage homogenates (FIG. 2B) with NO2 Arg were examined. The preincubation was conducted at 4° C. since NOS is unstable at higher temperature for long periods of time. Enzymatic incubation was conducted for only 5 minutes to minimize any reaction of the inhibitor with the enzyme in the course of the incubation procedure.
Cerebellar supernatants were made as described in Example 1.

[2] = tested on: macrophage NOS (activated macrophage homogenates); experiment: inhibition of NOS activity in activated macrophage homogenates in vitro; type: biochemical
From the text: as §1, §2, §3
Macrophages were activated as described by Tayeh and Marletta (J. Biol. Chem. (1989) 264:19654-19658) with 3.5 ng/ml LPS from E. coli and 5 units/ml recombinant murine γ-interferon for 24 hours at 37° C. Cells were homogenized in 20 mM Hepes (pH 7.4).

[3] = tested on: brain or macrophage enzyme (NOS); experiment: NOS inhibition and brain/macrophage selectivity of arginine, nitroarginine and guanidinoalkanoic acid analogs; type: biochemical

Sequence of brain NOS (cerebellar NOS) (P29476 whole entry): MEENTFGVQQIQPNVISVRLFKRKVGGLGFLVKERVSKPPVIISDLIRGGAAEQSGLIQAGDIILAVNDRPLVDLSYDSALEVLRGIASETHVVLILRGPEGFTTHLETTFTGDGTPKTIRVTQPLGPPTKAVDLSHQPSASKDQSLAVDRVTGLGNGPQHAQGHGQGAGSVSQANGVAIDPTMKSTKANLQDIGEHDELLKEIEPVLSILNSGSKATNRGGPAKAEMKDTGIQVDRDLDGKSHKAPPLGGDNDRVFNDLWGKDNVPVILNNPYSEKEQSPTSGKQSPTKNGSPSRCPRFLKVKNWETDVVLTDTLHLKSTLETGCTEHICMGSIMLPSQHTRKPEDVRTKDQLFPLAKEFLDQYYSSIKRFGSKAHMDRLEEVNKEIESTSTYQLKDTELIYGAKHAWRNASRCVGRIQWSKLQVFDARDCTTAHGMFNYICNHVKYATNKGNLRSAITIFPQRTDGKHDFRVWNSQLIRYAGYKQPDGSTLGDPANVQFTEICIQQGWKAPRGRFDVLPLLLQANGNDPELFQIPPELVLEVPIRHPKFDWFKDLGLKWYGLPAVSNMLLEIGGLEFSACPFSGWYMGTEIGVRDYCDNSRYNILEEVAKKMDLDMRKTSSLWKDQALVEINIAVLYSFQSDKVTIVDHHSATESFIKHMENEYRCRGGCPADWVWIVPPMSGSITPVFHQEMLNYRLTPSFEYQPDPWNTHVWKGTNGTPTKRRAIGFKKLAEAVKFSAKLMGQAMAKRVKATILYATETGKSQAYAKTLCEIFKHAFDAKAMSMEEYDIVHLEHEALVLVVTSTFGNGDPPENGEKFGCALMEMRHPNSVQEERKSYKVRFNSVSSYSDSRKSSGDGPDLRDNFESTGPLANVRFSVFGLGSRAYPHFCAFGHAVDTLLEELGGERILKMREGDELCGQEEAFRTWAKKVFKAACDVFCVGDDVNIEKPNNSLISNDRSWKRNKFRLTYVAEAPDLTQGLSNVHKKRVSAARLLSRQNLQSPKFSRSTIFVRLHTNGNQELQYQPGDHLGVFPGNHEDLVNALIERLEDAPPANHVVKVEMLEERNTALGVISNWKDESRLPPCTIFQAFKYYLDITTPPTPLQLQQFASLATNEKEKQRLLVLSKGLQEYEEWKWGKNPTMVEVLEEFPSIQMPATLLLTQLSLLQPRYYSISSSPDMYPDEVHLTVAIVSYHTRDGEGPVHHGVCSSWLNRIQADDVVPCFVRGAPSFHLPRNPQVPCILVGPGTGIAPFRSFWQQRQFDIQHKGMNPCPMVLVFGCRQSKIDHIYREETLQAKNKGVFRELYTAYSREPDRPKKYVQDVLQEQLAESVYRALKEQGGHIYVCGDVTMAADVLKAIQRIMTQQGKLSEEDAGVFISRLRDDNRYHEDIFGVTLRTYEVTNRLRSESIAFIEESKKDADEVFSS

Structure (SMILES): N=C(NCCC[C@H](N)C(=O)O)N[N+](=O)[O-] [NO2 Arg, L-N^ω -nitroarginine]
- prevention of neurotoxicity, in words (cortical cell cultures): prevent neurotoxicity in proportion to their relative potencies as NOS inhibitors
- Cell death, % ± SEM (kainate + NO2 Arg) (cortical cell cultures; 100 μM kainate +500 μM NO2 Arg): 87.0 ± 3.2%
- Cell death, % ± SEM (NMDA + NO2 Arg) (cortical cell cultures; 300 μM NMDA + 10 μM glycine +100 μM NO2 Arg): 17.7 ± 3.0%
- Cell death, % ± SEM (NMDA + NO2 Arg + L-Arg) (cortical cell cultures; 300 μM NMDA + 10 μM glycine +100 μM NO2 Arg + 1mM L-Arg): 63.4 ± 5.5%
- effect on NMDA cytotoxicity (photomicrographs, FIG. 4) (cortical cell cultures; 300 μM NMDA plus 10 μM glycine plus 100 NO2 Arg): inhibition of NMDA cytotoxicity
- Cell death, % ± SEM (glutamate + NO2 Arg + L-Arg) (cortical cell cultures; 500 μM glutamate +100 μM NO2 Arg + 1 Mm L-Arg): 48.2 ± 3.2%
- Cell death, % ± SEM (glutamate + NO2 Arg) (cortical cell cultures; 500 μM glutamate +100 μN NO2 Arg): 28.9 ± 6.0%
- Cell death, % ± SEM (quisqualate + NO2 Arg) (cortical cell cultures; 500 μM quisqualate +500 μM NO2 Arg): 51.1 ± 2.4%
- Cell death, % ± SEM (quisqualate + NO2 Arg + L-Arg) (cortical cell cultures; 500 μM quisqualate +500 μM NO2 Arg + mM L-Arg): 66.6 ± 5.3%
- inhibition at 100 µM (cortical cell cultures; Rattus norvegicus, 100 μM NO2 Arg applied simultaneously with NMDA, read-out: reduction of NMDA-induced cell death): 70%
- EC50 (cortical cell cultures; Rattus norvegicus, NMDA and related excitatory amino acids, read-out: EC50 for preventing neurotoxicity elicited by N-methyl-D-aspartate): 20 µM
- EC50 (cortical cell cultures; Rattus norvegicus, NMDA, read-out: concentration giving 50% prevention of NMDA-induced cell death): ~20 µM
- protection against kainate-induced cell death (cortical cell cultures; kainate): no protection against kainate-induced cell death
- protection against quisqualate-induced cell death (cortical cell cultures; quisqualate): A portion of cell death elicited by quisqualate is prevented; also recorded: higher concentrations of NO2 Arg are required than with NMDA toxicity
- effect on NMDA stimulation of cGMP formation (cGMP formation): antagonized
- effect of preincubation on potency of inhibition ([1]; 2 hour preincubation at 4° C., FIG. 2A): increases the potency of inhibition
- nature of inhibition of cerebellar NOS in vitro ([1]; FIG. 1, before and after dialysis): irreversible inhibition
- relative potency as inhibitor of NOS activity ([1]; cerebellar supernatant preparations, FIG. 1): more potent inhibitor of NOS activity than MeArg
- augmentation of potency by preincubation ([1]; preincubation for 24 hours at 4° C.): about 15 times
- potency in inhibiting the macrophage enzyme compared to the cerebellar enzyme ([2]; 24 hours of incubation): about 7%
- enhancement of potency after preincubation ([2]; preincubation with the enzyme, 24 hours, FIG. 2B): only a minimal enhancement of potency
- potency as NOS inhibitor relative to cerebellar preparations ([2]; supernatant preparations of activated macrophage cultures, FIG. 2B): less potent inhibitor of NOS than in cerebellar preparations
- inhibition potency among nitroarginine analogs [3]: most potent inhibitor
